Assay results taken from patent US8821568B2, “Implant modified with non-hydroxylated vitamin D precursors” (Numat Biomedical S.L., priority 2008, dated 2014).

How the values were obtained:
Assay type in all cases: cell-based, mouse
[1] = test system: MC3T3-E1 cells; experiment: ELISA of 25-D3 released to the culture media, coated titanium implants; settings: Ti implants; 0.2 nmols; 48 h; UV exposure 15 minutes; vs ethanol-treated Ti samples
Method: To test the effect of the surface modification, 96-well plates were used. Ti disks were placed into the wells and treatments and UV-activation were performed over there. Cells grown onto untreated polystyrene tissue culture plastic (TCP) were added as a control for all the experiments. Cells were seeded at a density of 30,000 cells/cm^2 and they were maintained in α-MEM supplemented with 10% FCS and antibiotics. Culture media was collected after 48 hours, to test cytotoxicity and the production of the hydroxylated form of vitamin D, 25-D3. Cells were harvested after two days of culture using Trizol reagent (Roche Diagnostics, Mannheim, Germany), to analyze gene expression of several osteoblast differentiation markers and enzymes involved in vitamin D synthesis using real-time RT-PCR. On the other hand, MC3T3-E1 cells were harvested after 21 days to measure calcium content and ALP activity in the cell monolayer.
25-D3 released to the culture media after 2 days of treatment were analyzed by enzyme-linked immunosorbent assay (ELISA). Aliquots from the culture media were centrifuged at 1800 rpm for 5 minutes at 4° C. and supernatants were used for 25-D3 and determination following instructions described by the manufacturer (Immunodiagnostic Systems Ltd, Boldon, Tyne and Wear, UK).

[2] = test system: MC3T3-E1 cells; experiment: Real-time RT-PCR of vitamin D hydroxylation/degradation enzymes (CYP27A1, CYP27B1, CYP24A1), plastic wells; settings: TCP, 2 days
Method: To test the effect of the different treatments onto the plastic wells, 96-well plates made of polystyrene were used and the treatments with 7-DHC performed directly onto them. Cells grown onto untreated TCP were added as a control for all the experiments. Cells were seeded at a density of 30,000 cells/cm^2 and they were maintained in α-MEM supplemented with 10% FCS and antibiotics. Culture media was collected after 48 hours, to test cytotoxicity and the production of the hydroxylated forms of vitamin D. Cells were harvested after 2 days of culture using Trizol reagent (Roche Diagnostics, Mannheim, Germany), to analyse early gene expression response of several osteoblast differentiation markers and enzymes involved in vitamin D synthesis using real-time RT-PCR.
RNA was isolated from cells using a monophasic solution of phenol and guanidine thiocyanate (Trizol, Roche Diagnostics, Mannheim, Germany) according to the manufacturer's protocol. RNA was quantified at 260 nm using a Nanodrop spectrophotometer (NanoDrop Technologies, Wilmington, Del., USA).
Total RNA previously isolated was reverse-transcribed to cDNA using High Capacity RNA to cDNA kit (Applied Biosystems, Foster City, Calif.) according to the protocol of the supplier. The same amount of total RNA from each sample was converted into cDNA. Each cDNA was diluted ¼ and aliquots were stored at −20° C. until the PCR reactions were carried out.
Real-time RT-PCR was performed for two reference genes: 18S ribosomal RNA (18S rRNA), glyceraldehyde-3-phosphate dehydrogenase (GAPDH), and 11 target genes alkaline phospathase (ALP), Interleukin 6 (IL-6), Collagen (Coll-1), Osteocalcin (OC), Bone Morphogenetic Protein 2 (BMP-2), Osterix (Osx), Receptor activator of nuclear factor kappa-B ligand (RANKL), Osteoprogesterin (OPG) and genes involved in vitamin D synthesis such as Vitamin D3 25-hydroxylase (CYP27A1), 25 hydroxyvitamin D3-1-alpha hydroxylase (CYP27B1) and 1,25-dihydroxyvitamin D3 24-hydroxylase (CYP24A1).
Real-time PCR were performed in the Lightcycler 480® (Roche Diagnostics, Germany). […] After each cycle, fluorescence was measured at 72° C. […]
To allow relative quantification after PCR, real-time efficiencies were calculated from the given slopes in the LightCycler 480 software (Roche Diagnostics, Mannheim, Germany) using serial dilutions. Relative quantification after PCR was calculated by normalizing target gene concentration in each sample by the concentration mean of the two reference genes in given sample using the “advanced relative quantification method” provided by the LightCycler 480 analysis software.

[3] = test system: MC3T3-E1 cells; experiment: Real-time RT-PCR of hydroxylase enzymes (CYP27A1, CYP27B1), coated titanium implants; settings: Ti implants, 48 h
Method: To test the effect of the surface modification, 96-well plates were used. Ti disks were placed into the wells and treatments and UV-activation were performed over there. Cells grown onto untreated polystyrene tissue culture plastic (TCP) were added as a control for all the experiments. Cells were seeded at a density of 30,000 cells/cm^2 and they were maintained in α-MEM supplemented with 10% FCS and antibiotics. Culture media was collected after 48 hours, to test cytotoxicity and the production of the hydroxylated form of vitamin D, 25-D3. […]
RNA was isolated from cells using a monophasic solution of phenol and guanidine thiocyanate (Trizol, Roche Diagnostics, Mannheim, Germany) according to the manufacturer's protocol. RNA was quantified at 260 nm using a Nanodrop spectrophotometer (NanoDrop Technologies, Wilmington, Del., USA). […]
To allow relative quantification after PCR, real-time efficiencies were calculated from the given slopes in the LightCycler 480 software (Roche Diagnostics, Mannheim, Germany) using serial dilutions. Relative quantification after PCR was calculated by normalizing target gene concentration in each sample by the concentration mean of the two reference genes in given sample using the Advanced relative quantification method provided by the LightCycler 480 analysis software.

CC(C)CCC[C@@H](C)[C@H]1CC[C@H]2C3=CC=C4C[C@@H](O)CC[C@]4(C)[C@H]3CC[C@]12C [7-DHC, 7-dehydrocholesterol]
25-D3 secretion to the cell culture media [1]: increased 25-hydroxyvitamin D3 (25-D3) production | CYP27B1 mRNA levels ([2]; UV-irradiated, higher concentrated samples, significance was not reached): increase in mRNA levels | CYP27A1 mRNA levels ([2]; UV-treated doses above the lowest, vs UV-untreated corresponding doses): dose-response increase | CYP27B1 gene expression ([3]; increasing UV exposure time, significant vs UV-untreated at 15 and 30 min): upregulated | CYP27A1 mRNA gene expression ([3]; with UV irradiation time, maximum after 15 min): trend to increase
